Data from patent EP0237929B1, “3,5-Disubstituted pyrocatechol derivatives” (F. HOFFMANN-LA ROCHE AG, priority 1986, dated 1987).

Columns and labels:
[1] = molecular target: T1, Catechol-O-Methyl-Transferase (COMT) (Rattus norvegicus, UniProt P22734); assay: COMT inhibition in rat liver homogenates; type: biochemical, Ratten
T1 construct: Man inkubiert Rattenleber-Homogenate in Gegenwart eines geeigneten Substrates; from tissue; host or cells: rat liver homogenate
T1 sequence (P22734 1-264): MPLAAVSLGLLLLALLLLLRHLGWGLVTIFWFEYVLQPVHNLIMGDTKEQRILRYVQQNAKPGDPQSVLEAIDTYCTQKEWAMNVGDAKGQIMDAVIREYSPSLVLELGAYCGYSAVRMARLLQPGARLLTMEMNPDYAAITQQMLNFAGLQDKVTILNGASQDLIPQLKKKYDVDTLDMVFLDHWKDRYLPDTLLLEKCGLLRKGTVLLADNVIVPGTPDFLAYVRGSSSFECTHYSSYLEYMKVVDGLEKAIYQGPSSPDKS
From the text: Diese Wirkung kann wie folgt quantitativ erfasst werden: Man inkubiert Rattenleber-Homogenate in Gegenwart eines geeigneten Substrates wie in J. Neurochem. […] In einer zweiten Versuchsreihe wird die Inkubation in Gegenwart einer Verbindung der Formel Ia durchgeführt. Aus der Differenz der ermittelten COMT-Aktivitäten lässt sich dann die IC₅₀ berechnen. Die IC₅₀ wird in nMol/l angegeben und ist diejenige Konzentration in der Inkubationsmischung, welche notwendig ist, um die COMT-Aktivität um 50% herabzusetzen.

[2] = Acute toxicity after a single oral administration to mice; details: mouse, in vivo, p.o., read-out: DL₅₀

Row | Compound | IC50 [1] | LD50 [2]
1 | O=C(c1cc(O)c(O)c([N+](=O)[O-])c1)c1ccccc1F [2'-Fluor-3,4-dihydroxy-5-nitrobenzophenon] | 42 nM | 312 to 625 mg/kg
2 | CCCCOC(=O)c1cc(O)c(O)c([N+](=O)[O-])c1 [3,4-Dihydroxy-5-nitrobenzoesäure-n-butylester] | 20 nM | 312 to 625 mg/kg
3 | O=C(c1ccccc1)c1cc(O)c(O)c([N+](=O)[O-])c1 [3,4-Dihydroxy-5-nitrobenzophenon] | 48 nM | 500 to 1000 mg/kg
4 | O=C(c1cc(O)c(O)c([N+](=O)[O-])c1)c1ccccn1 [3,4-Dihydroxy-5-nitrophenyl-2-pyridylketon] | 53.4 nM | 1250 to 2500 mg/kg
5 | O=C(c1cccnc1)c1cc(O)c(O)c([N+](=O)[O-])c1 [3,4-Dihydroxy-5-nitrophenyl-3-pyridylketon] | 47 nM | 1000 to 2000 mg/kg
6 | O=C(c1ccncc1)c1cc(O)c(O)c([N+](=O)[O-])c1 [3,4-Dihydroxy-5-nitrophenyl-4-pyridylketon] | 67 nM | 1000 to 2000 mg/kg
7 | CCOC(=O)C(=O)c1cc(O)c(O)c([N+](=O)[O-])c1 [3,4-Dihydroxy-5-nitrophenylglyoxylsäureäthylester] | 48.1 nM | 1250 to 2500 mg/kg
8 | CCCCOC(=O)C=Cc1cc(O)c(O)c([N+](=O)[O-])c1 [3,4-Dihydroxy-5-nitrozimtsäure-n-butylester] | 25.9 nM | 2500 to 5000 mg/kg
9 | O=[N+]([O-])c1cc(O)c(O)c([N+](=O)[O-])c1 [3,5-Dinitropyrocatechol] |  | 500 to 1000 mg/kg
